The CheMixHub viscosity set

Test: xn = mol fraction of the nth substance listed

COCCOCCOCCO + CN(CCO)CCO
viscosity [mPa·s], 101.33 kPa
Details	x2 = 0.1004	x2 = 0.2133	x2 = 0.2964	x2 = 0.3993	x2 = 0.4991	x2 = 0.5993	x2 = 0.7001	x2 = 0.8006	x2 = 0.9002
298.15 K	6.741	8.012	9.103	10.85	13.35	17.08	22.81	31.15	50.17
313.15 K	4.491	5.038	5.882	6.508	7.732	9.412	12.03	15.99	22.23
323.15 K	3.445	3.861	4.307	4.93	5.674	6.845	8.383	10.78	14.36

CCNCC + CNC(C)=O
308.15 K, 101 kPa
Details	viscosity [mPa·s]
x2 = 0.0413	0.2729
x2 = 0.1815	0.4061
x2 = 0.3505	0.6727
x2 = 0.5056	1.02
x2 = 0.5776	1.254
x2 = 0.6715	1.563
x2 = 0.7881	2.064
x2 = 0.8957	2.614
x2 = 0.9724	3.097

CC(C)(C)O + CO
303.2 K, 101.33 kPa
Details	viscosity [mPa·s]
x2 = 0.05	3.285
x2 = 0.1	3.166
x2 = 0.15	3
x2 = 0.2	2.806
x2 = 0.3	2.4
x2 = 0.4	2.016
x2 = 0.5	1.649
x2 = 0.6	1.36
x2 = 0.7	1.069
x2 = 0.8	0.842
x2 = 0.85	0.746
x2 = 0.9	0.658
x2 = 0.95	0.574

COCCOCCOCCOC + CO
viscosity [mPa·s], 100 kPa
Details	293.15 K	298.15 K	303.15 K
x2 = 0.0543	2.129	1.922	1.733
x2 = 0.0988	2.083	1.882	1.696
x2 = 0.1978	1.982	1.795	1.621
x2 = 0.3013	1.864	1.689	1.527
x2 = 0.3994	1.737	1.58	1.434
x2 = 0.5183	1.57	1.433	1.302
x2 = 0.5962	1.443	1.321	1.203
x2 = 0.6983	1.26	1.158	1.058
x2 = 0.7969	1.055	0.975	0.894
x2 = 0.8472	0.944	0.875	0.804
x2 = 0.8993	0.825	0.767	0.705
x2 = 0.9489	0.711	0.662	0.608

C[NH+](CCO)CCO.O=C[O-] + CO
viscosity [mPa·s], 101 kPa
Details	293.15 K	303.15 K	313.15 K	323.15 K
x1 = 0.0524	26.47	15.39	6.822	4.667
x1 = 0.1066	52.08	24.58	13.12	8.99
x1 = 0.2075	103.1	49.04	26.16	17.87
x1 = 0.3137	158.6	77.7	40.82	27.89
x1 = 0.4061	207.6	102	54.12	37.05
x1 = 0.5016	259.6	126.3	68.64	47.08
x1 = 0.6339	339	163	91.65	62.82
x1 = 0.7031	388.3	187.2	106.1	72.5
x1 = 0.8195	494.6	243.3	136.4	92.04
x1 = 0.9184	618.8	307.1	167.4	111.1
x1 = 0.962	667.2	330.3	179.6	118.9

Nc1ccccc1 + CO
298.15 K, 101 kPa
Details	viscosity [mPa·s]
x1 = 0.0473	0.5608
x1 = 0.1001	0.5768
x1 = 0.1604	0.6103
x1 = 0.2292	0.6583
x1 = 0.3082	0.7229
x1 = 0.4007	0.8404
x1 = 0.5096	1.023
x1 = 0.6406	1.322
x1 = 0.8005	1.867

COCCOCCOCCOC + COC(=O)OC
298.15 K, 101.33 kPa
Details	viscosity [mPa·s]
x1 = 0.0029	0.592
x1 = 0.0133	0.606
x1 = 0.0209	0.618
x1 = 0.0436	0.651
x1 = 0.0642	0.679
x1 = 0.0947	0.721
x1 = 0.1187	0.753
x1 = 0.1459	0.792
x1 = 0.1856	0.846
x1 = 0.2147	0.888
x1 = 0.2593	0.953
x1 = 0.3084	1.026
x1 = 0.3099	1.025
x1 = 0.3614	1.099
x1 = 0.4011	1.157
x1 = 0.4433	1.221
x1 = 0.5005	1.303
x1 = 0.5659	1.396
x1 = 0.6004	1.449
x1 = 0.6515	1.524
x1 = 0.6923	1.585
x1 = 0.7622	1.673
x1 = 0.815	1.74
x1 = 0.8324	1.76
x1 = 0.9158	1.86
x1 = 0.9541	1.899

CC(C)(C)O + COC(C)(C)C
101.33 kPa
Details	viscosity [mPa·s]
303.15 K, x2 = 0.0443	2.726
303.15 K, x2 = 0.0877	2.236
303.15 K, x2 = 0.1262	1.894
303.15 K, x2 = 0.1702	1.587
303.15 K, x2 = 0.2519	1.192
303.15 K, x2 = 0.2645	1.146
303.15 K, x2 = 0.3232	0.9699
303.15 K, x2 = 0.3619	0.8794
303.15 K, x2 = 0.4504	0.7203
303.15 K, x2 = 0.5434	0.5955
303.15 K, x2 = 0.5686	0.5668
303.15 K, x2 = 0.6631	0.4759
303.15 K, x2 = 0.7872	0.3997
303.15 K, x2 = 0.8887	0.3669
303.15 K, x2 = 0.9442	0.3487
313.15 K, x2 = 0.048	1.742
313.15 K, x2 = 0.0499	1.73
313.15 K, x2 = 0.0796	1.556
313.15 K, x2 = 0.092	1.491
313.15 K, x2 = 0.1717	1.149
313.15 K, x2 = 0.2531	0.9105
313.15 K, x2 = 0.267	0.878
313.15 K, x2 = 0.3697	0.6901
313.15 K, x2 = 0.4552	0.5827
313.15 K, x2 = 0.5678	0.4803
313.15 K, x2 = 0.6723	0.4109
313.15 K, x2 = 0.7688	0.3634
313.15 K, x2 = 0.8802	0.3241
313.15 K, x2 = 0.9456	0.305

COCCOCCOCCOC + COC(C)=O
viscosity [mPa·s], 101.3 kPa
Details	298.15 K	308.15 K	318.15 K
x1 = 0.022	0.398	0.352	0.33
x1 = 0.0473	0.424	0.378	0.352
x1 = 0.0717	0.455	0.404	0.373
x1 = 0.1255	0.527	0.465	0.425
x1 = 0.1838	0.61	0.534	0.478
x1 = 0.2145	0.649	0.561	0.512
x1 = 0.236	0.676	0.58	0.528
x1 = 0.2557	0.709	0.616	0.549
x1 = 0.3143	0.802	0.687	0.611
x1 = 0.4027	0.943	0.802	0.699
x1 = 0.4806	1.07	0.905	0.783
x1 = 0.5743	1.234	1.031	0.883
x1 = 0.6289	1.326	1.1	0.942
x1 = 0.6511	1.367	1.13	0.964
x1 = 0.7138	1.474	1.215	1.031
x1 = 0.7667	1.566	1.286	1.086
x1 = 0.7792	1.593	1.308	1.1
x1 = 0.8702	1.743	1.426	1.195
x1 = 0.9014	1.805	1.472	1.225
x1 = 0.9571	1.891	1.548	1.278
x2 = 0.0137	1.936	1.584	1.306

Nc1ccccc1 + COCCO
303.15 K, 101 kPa
Details	viscosity [mPa·s]
x1 = 0.0881	2.156
x1 = 0.1786	2.351
x1 = 0.2716	2.555
x1 = 0.3671	2.757
x1 = 0.4652	2.955
x1 = 0.5661	3.129
x1 = 0.67	3.284
x1 = 0.7768	3.437
x1 = 0.8867	3.591

ClCc1ccccc1 + COCCOC
298.15 K, 101 kPa
Details	viscosity [mPa·s]
x2 = 0.135	1.176
x2 = 0.2599	1.026
x2 = 0.3758	0.908
x2 = 0.4836	0.807
x2 = 0.5841	0.716
x2 = 0.6781	0.635
x2 = 0.7662	0.564
x2 = 0.8489	0.506
x2 = 0.9267	0.453

ClCc1ccccc1 + COc1ccccc1
303.15 K, 101 kPa
Details	viscosity [mPa·s]
x2 = 0.1045	1.245
x2 = 0.1911	1.362
x2 = 0.304	1.438
x2 = 0.4094	1.466
x2 = 0.5182	1.45
x2 = 0.6162	1.394
x2 = 0.7196	1.3
x2 = 0.8053	1.192
x2 = 0.9137	1.061

CC(C)(C)O + CS(C)=O
viscosity [mPa·s], 101.3 kPa
Details	x2 = 0.095	x2 = 0.1916	x2 = 0.289	x2 = 0.3874	x2 = 0.5132	x2 = 0.5873	x2 = 0.6888	x2 = 0.7916	x2 = 0.8951
298.15 K	3.564	2.968	2.53	2.269	2.07	2.005	1.917	1.902	1.971
303.15 K	2.644	2.111	1.808	1.608	1.479	1.459	1.531	1.568	1.719

CNC + CS(C)=O
303.15 K, 101 kPa
Details	viscosity [mPa·s]
x2 = 0.061	2.067
x2 = 0.1207	2.133
x2 = 0.2361	2.207
x2 = 0.4518	2.373
x2 = 0.6496	2.207
x2 = 0.8318	1.939

Nc1ccccc1 + CS(C)=O
viscosity [mPa·s], 101 kPa
Details	298.15 K	302.4 K	308.15 K	318.15 K
x2 = 0.0786	–	5.806	–	–
x2 = 0.1	3.83	–	2.841	2.194
x2 = 0.2	3.94	–	2.925	2.259
x2 = 0.2281	–	3.998	–	–
x2 = 0.3	3.99	–	2.98	2.3
x2 = 0.4	3.938	–	2.958	2.294
x2 = 0.4344	–	4.788	–	–
x2 = 0.5	3.756	–	2.839	2.232
x2 = 0.5614	–	5.863	–	–
x2 = 0.6	3.445	–	2.644	2.106
x2 = 0.6809	–	6.538	–	–
x2 = 0.7	3.055	–	2.397	1.938
x2 = 0.8	2.664	–	2.134	1.746
x2 = 0.8473	–	6.37	–	–
x2 = 0.9	2.313	–	1.886	1.529

C[C@@H]1CC[C@@H]2C[C@H]1C2(C)C + C[C@H]1CC[C@@H]2C[C@H]1C2(C)C
100 kPa, x2 = 0.9048
Details	viscosity [mPa·s]
293.15 K	2.24
298.15 K	2.023
303.15 K	1.838
308.15 K	1.679
313.15 K	1.538
318.15 K	1.415
323.15 K	1.308
